Laboratory results from patent US7439232B2, “Heteroaryl 5-thio-β-D-glucopyranoside derivatives and therapeutic agents for diabetes containing the same” (Taisho Pharmaceutical Co., Ltd., priority 2003, dated 2008).

melting point [°C] | Compound
54 to 58.5 | CCc1ccc(Cc2c(O[C@@H]3S[C@H](CO)[C@@H](O)[C@H](O)[C@H]3O)nn(C(C)C)c2C)cc1 [Compound 1, 4′-(4′-ethylbenzyl)-1′-isopropyl-5′-methyl-1′H-pyrazol-3′-yl 5-thio-β-D-glucopyranoside]
145 to 147 | COc1ccc(Cc2c(O[C@@H]3S[C@H](CO)[C@@H](O)[C@H](O)[C@H]3O)n[nH]c2C)cc1F [Compound 4, 4′-[(3′-fluoro-4′-methoxyphenyl)methyl]-5′-methyl-1′H-pyrazol-3′-yl 5-thio-β-D-glucopyranoside]
106 to 110 | CCOC(=O)OC[C@H]1S[C@@H](Oc2nn(C(=O)OCC)c(C)c2Cc2ccc(OC)cc2)[C@H](O)[C@@H](O)[C@@H]1O [Compound 8, 1′-ethoxycarbonyl-4′-[(4′-methoxyphenyl)methyl]-5′-methyl-pyrazol-3′-yl 6-O-ethoxycarbonyl-5-thio-β-D-glucopyranoside]
184 to 187 | CCc1ccc(Cc2ccncc2O[C@@H]2S[C@H](CO)[C@@H](O)[C@H](O)[C@H]2O)cc1 [Compound 20, 4′-(4′-ethylbenzyl)pyridin-3′-yl 5-thio-β-D-glucopyranoside]
181 to 183.5 | CCc1ccc(Cc2nccnc2O[C@@H]2S[C@H](CO)[C@@H](O)[C@H](O)[C@H]2O)cc1 [Compound 23, 3′-(4′-ethylbenzyl)-1′H-pyrazin-2′-yl 5-thio-β-D-glucopyranoside]
143 to 147.5 | CCc1ccc(Cc2c(C)nc(C)nc2O[C@@H]2S[C@H](CO)[C@@H](O)[C@H](O)[C@H]2O)cc1 [Compound 24, 5′-(ethylbenzyl)-2′,6′-dimethyl-3′H-pyrimidin-4′-yl 5-thio-β-D-glucopyranoside]
194.5 to 195 | OCCc1ccc(Cc2ccncc2O[C@@H]2S[C@H](CO)[C@@H](O)[C@H](O)[C@H]2O)cc1 [Compound 32, 4′-[4′-(2′-hydroxyethyl)benzyl]pyridin-3′-yl 5-thio-β-D-glucopyranoside]
